Reference: article PMC6410202, “Dual Action of the PN159/KLAL/MAP Peptide: Increase of Drug Penetration across Caco-2 Intestinal Barrier Model by Modulation of Tight Junctions and Plasma Membrane Permeability” (Pharmaceutics, 2019)

Legend:
Caco-2 epithelial cells [1] = experiment: MTT assay, Caco-2 cell viability; assay type: cell-based, human; conditions: 1-h treatment
Description: The human Caco-2 intestinal epithelial cell line was purchased from ATCC (cat.no. HTB-37). Caco-2 cells were grown in DMEM/HAM’s F-12 culture medium with stable glutamine (Life Technologies, Gibco, Carlsbad, CA, USA) supplemented with 10% fetal bovine serum (Life Technologies, Gibco, Carlsbad, CA, USA and 50 μg/mL gentamycin in a humidified incubator with 5% CO2 at 37 °C. All plastic surfaces were coated with 0.05% rat tail collagen in sterile distilled water before cell seeding.
The PN159 peptide stock solution (5 mM) was prepared freshly in sterile DMSO. Treatment solutions were further diluted in Ringer-Hepes (150 mM NaCl, 6 mM NaHCO3, 5.2 mM KCl, 2.2 mM CaCl2, 0.2 mM MgCl2, 2.8 mM D-glucose, 5 mM Hepes; pH 7.4) or cell culture medium. Final concentrations of the peptide in treatment solutions were as follows: 1, 3, 10, 30 and 100 µM for cell viability assays; 1, 3, 10 and 30 µM for the barrier integrity assays and 10 µM for the recovery measurements.
For the cell viability assays Caco-2 epithelial cells were seeded to 96-well plates at the density of 6 × 10^3 cells/well (Orange Scientific) and cultured for 3-5 days. Confluent cultures were treated with PN159 peptide (1, 3, 10, 30 and 100 μM) in phenol red free DMEM (Life Technologies, Gibco, Carlsbad, CA, USA) for 1-h. This viability assay was performed at three different time points: (i) immediately after the 1-h treatment, (ii) at one-day recovery, (iii) at one-week recovery. To determine 100% toxicity, cells were incubated with 1 mg/mL Triton X-100 detergent. After treatment the medium was changed and 0.5 mg/mL MTT (3-(4,5-dimethyltiazol-2-yl)-2,5-diphenyltetrazolium bromide) solution was added to the cells for 3 h. During the incubation cells were kept in a CO2 incubator. The metabolic activity of cells is reflected by the conversion of the yellow MTT dye to purple formazan. Formazan crystals were dissolved in DMSO and the amount of converted dye was determined by measuring absorbance at 595 nm wavelength with a microplate reader (Fluostar Optima, BMG Labtechnologies, Ortenberg, Germany). Cell viability and/or metabolic activity was calculated as percentage of dye conversion by non-treated cells.

Caco-2 cell layers = experiment: Transepithelial electrical resistance (TEER) of Caco-2 cell layers; assay type: cell-based, human; conditions: for TEER, % of the control value: PN159 10 μM
Description: For the measurement of barrier integrity Caco-2 cells were seeded onto culture inserts (Transwell 3460, polyester membrane, 0.4 µm pore size, Corning Costar) and cultured for three weeks. Transepithelial electrical resistance (TEER) reflects the tightness of the intercellular junctions. […]. Resistance of cell-free inserts (130 Ω × cm^2) was subtracted from the measured values. TEER values were measured before and right after permeability experiments). TEER values indicated the integrity and paracellular permeability of cell layers for ions. The TEER of Caco-2 monolayers was 1302 ± 49 Ω × cm^2 (mean ± SD; n = 46) after 3 weeks culturing. For the recovery experiment, after changing the 10 μM peptide solutions to culture medium, TEER was monitored for one day.

Caco-2 cells = experiment: Immunostaining of junctional proteins and F-actin; assay type: cell-based, human; conditions: 1 h
Description: Morphological changes in interepithelial junctions after treatment with different concentrations of CPPs (100 μM) and PN159 peptide (1, 3, 10, 30 and 100 μM) were followed by immunostaining for claudin-1 integral membrane tight junction protein, β-catenin and zonula occludens protein-1 (ZO-1) cytoplasmic linker proteins. F-actin was stained by fluorescently labeled phalloidin. Treatments lasted for 1 h. After peptide treatment cell layers were washed with PBS and fixed with a 1:1 mixture of ice cold acetone and methanol for 2 min. Cells were blocked with 3% bovine serum albumin in PBS and incubated with primary antibodies mouse anti-claudin-1 and -4, rabbit anti-ZO-1 and rabbit anti-β-catenin (Life Technologies, Carlsbad, CA, USA) overnight. Fluorescent Atto 647N-phalloidin (ATTO-TEC GmbH, Germany) lasted for 1 h. Incubation with Alexa Fluor-488-labeled anti-mouse and anti-rabbit secondary antibodies (Life Technologies, Invitrogen, USA) lasted for 1 h. Bis-benzimide dye (Hoechst 33342) was used to stain cell nuclei. After mounting (Fluoromount-G; Southern Biotech, Birmingham, AL, USA) the samples staining was visualized by a Leica TCS SP5 confocal laser scanning microscope (Leica Microsystems GmbH, Wetzlar, Germany) and Visitron spinning disk confocal system (Visitron Systems GmbH, Puchheim, Germany).

Caco-2 epithelial cells [2] = experiment: Ethidium homodimer-1 staining, cell membrane integrity; assay type: cell-based, human; conditions: PN159 1 to 10 μM, 24-h treatments
Description: Besides the junctional effects, changes in the cell membrane integrity were also examined by ethidium homodimer-1 (856.77 Da) staining of Caco-2 epithelial cells after 24-h treatments in the concentration range of 1 to 10 μM.
Figure 7 (A) Fluorescent staining of juntional protein zonula occludens-1 and double staining of cell nuclei in Caco-2 cells after 1-h treatment with PN159 peptide. Green color: immunostaining for ZO-1. Red color: staining by ethidium homodimer-1 (EH-1), indicating increased membrane permeability.Blue color: staining of all cell nuclei by H33342. Bar = 10 µm. (B) Confocal microscopy images of living Caco-2 epithelial cells incubated with Bodipy FL labeled PN159 peptide in different concentrations for 5 min at 37°C. Green color: BodipyFL-PN159 peptide. Blue color: staining of cell nuclei. Bar = 10 µm.

[3] = system: Pseudomonas aeruginosa (ATCC 27853); experiment: microbe, parasite or virus in culture; conditions: Muller–Hinton broth, 18 h
Description: The MIC of PN159 on the 6 sensitive and resistant ESKAPE pathogenic strains was determined in cation-adjusted Muller–Hinton broth. […] Minimum inhibitory concentrations (MICs) were determined by using a standard serial broth dilution technique. Briefly, 11-step serial dilutions were prepared in 96-well microtiter plates with three biological replicates per strain. Pathogens were inoculated into each well at a density of 5×10^5 bacteria/mL, and the plates were incubated at 37 °C. Plates were shaken at 300 rpm during incubation for 18 h. Cell growth was monitored by measuring the optical density (OD600 value, Synergy 2 microplate reader BioTek Instruments Inc, Winooski, VT, USA). […] As reference compounds we tested the antimicrobial activity of three bactericidal drugs with different modes of action.

claudin-1 = system: claudin-1; set-up: method as in PMID 26869428; conditions: affinity measurements; cited from earlier work
claudin-5 = system: claudin-5; set-up: method as in PMID 26869428; conditions: affinity measurements; cited from earlier work

## CC(C)C[C@H](NC(=O)[C@H](C)NC(=O)[C@H](CCCCN)NC(=O)[C@H](CC(C)C)NC(=O)[C@H](C)NC(=O)[C@H](CC(C)C)NC(=O)[C@H](CCCCN)NC(=O)[C@H](CC(C)C)NC(=O)[C@H](C)NC(=O)[C@H](CC(C)C)NC(=O)[C@@H](N)CCCCN)C(=O)N[C@@H](CCCCN)C(=O)N[C@@H](C)C(=O)N[C@@H](C)C(=O)N[C@@H](CC(C)C)C(=O)N[C@@H](CCCCN)C(=O)N[C@@H](CC(C)C)C(=O)N[C@@H](C)C(N)=O [PN159]
Caco-2 epithelial cells [1]; Caco-2
  Non-toxic concentration (MTT and impedance): ≤ 10 µM
Caco-2 epithelial cells [1]; PN159 30 μM
  Toxicity (MTT and impedance): reversible
Caco-2 epithelial cells [1]; PN159 100 μM
  Toxicity (MTT and impedance): toxic
Caco-2 epithelial cells [1]; PN159 100 μM, 1-day or 1-week recovery
  Reversibility of cytotoxic effect (MTT): not reversible after one day or even one week
Caco-2 epithelial cells [1]; PN159 1–10 μM, Caco-2
  Cell viability (MTT): did not decrease cell viability
Caco-2 epithelial cells [1]; PN159 30 and 100 μM, Caco-2
  Cell viability (MTT): cell damage
Caco-2 cell layers; 20 h after removal of PN159 (10 μM, 30 min)
  TEER recovery: complete recovery
Caco-2 cell layers; 1-min treatment
  TEER, % of the control value: 42%
Caco-2 cell layers; 5 min
  TEER, % of the control value: 16%
Caco-2 cell layers; 15 min
  TEER, % of the control value: 2.7%
Caco-2 cell layers; 30 min
  TEER, % of the control value: 1.4%
Caco-2 cell layers; PN159 10 and 30 μM, 1-h treatment
  Decrease in TEER: 80–90%
Caco-2 cell layers; all tested concentrations (1, 3, 10, 30 μM), 1-h treatment
  Resistance of epithelial cell layers (TEER): significantly decreased the resistance
Caco-2 cells; PN159 1 μM
  Junctional and cell morphology (claudin-1, ZO-1, β-catenin, F-actin): slight effect on cell morphology
Caco-2 cells; PN159 10 μM
  Junctional and cell morphology (claudin-1, ZO-1, β-catenin, F-actin): drastic change in actin cytoskeleton and epithelial junctional morphology
Caco-2 epithelial cells [2]
  Plasma membrane entry of ethidium homodimer-1: Only the highest PN159 concentration caused plasma membrane entry of the red fluorescent dye
[3]
  MIC: 46.4 µM
claudin-1
  Binding: in the micromolar range
claudin-5
  Binding: in the micromolar range
